Where two headings read alike, the source gives them in different places.
Experiments:
mice [1] = system: mice
Excerpt: Female C57BL/6J mice (Jackson Laboratories—Bar Harbor, Me.) were implanted with telemetry devices (PDT-4000 HR E-Mitter—MiniMitter Inc.—Bend, Oreg.) according to standard protocol provided by the manufacturer. Mice were allowed to recover for several weeks to permit body temperature and heart rate signals to stabilize. Core body temperature, heart rate, and movement of the mice were continuously monitored via the telemetry devices and recorded using VitalView software (provided by MiniMitter). Ambient temperature was monitored using a HOBO (Onset Computer Corp. —Pocasset, Mass.) and the data analyzed using BoxCar software (provided by Onset Computer Corp.).
Prior to and during exposure to testing in regulated and unregulated atmospheres, the mice were placed in a gassing chamber comprising a glass cage (with drinking water and no food) fitted with import and export tubes of FEP tubing from Cole-Parmer (Vernon Hills, Ill.) for introduction and venting of the atmosphere. The cage was sealed with a lid using Dow Corning silicone vacuum grease (Sigma—St. Louis, Mo.). The gas from each cage was vented through the export tube into the chemical hood. To ensure that the system was gas-tight, a GasTech GT portable monitor was used to detect leaks.
In some experiments, the consumption of oxygen was measured by use of a PA-10a O2 analyzer (Sable Systems) which was used according to manufacturers instructions. Similarly, the carbon dioxide being produced by the animals was monitored using a LI-7000 CO2/H2O analyzer (Li-Cor company) used according to the manufacturers instructions. These instruments were placed in line with the environmental chambers such that they sample the gas import and export tubing.
Mice were housed in a Shel Lab low temperature diurnal illumination incubator (Sheldon Manufacturing Inc. —Cornelius, Oreg.) to regulate both temperature and light cycle (8 AM lights on, 8 PM lights off) for the mice. Mice were exposed to regulated atmosphere as described above. When the mice were exposed to the regulated atmosphere, the temperature inside the incubator was dropped to the desired temperature, for example, to 10° C. or 15° C. The mice were maintained in the regulated atmosphere and at the lowered temperature for six hours. The atmosphere in the gassing chamber was replaced with room air and the mice were returned to normal room temperature (22° C.) and allowed to recover.
To test this hypothesis, the inventor wanted to continuously monitor both the core body temperature and the activity levels of a homeothermic animal (a mouse).

mice [2] = assay type: in vivo, mouse (C57BL6/J)
Protocol: The same flow rates were used as described above (i.e., […] in a 0.5 L chamber).
Experiments were conducted to test the ability of a mouse in a ‘hibernation-like’ state to survive in conditions where it would normally die. The adverse condition was hypoxia, which the literature states that mice (C57BL6/J males) can live in for a maximum of 20 minutes at 5% Oxygen.
The hypoxic exposure was timed (indicated below) and viability of the mice was determined.

[3] = 80 ppm H2S, 15 minutes, 0.5 L chamber

Structure (SMILES): S [H2S, hydrogen sulfide]
- core body temperature reached repeatedly (mice [1]; 80 ppm): 13-15 °C
- reduction in carbon dioxide production (mice [1]; 80 ppm H2S (FIG. 4A)): approximately 3 fold
- drop in carbon dioxide production (mice [1]; [3]): 3-4 fold
- drop in oxygen consumption (mice [1]; [3]): 2-3 fold
- heart rate (mice [1]; 80 ppm, 3 hrs, dropped from 600 bpm): 250 bpm
- lowest core body temperature recorded (mice [1]; 80 ppm, ambient temperature dropped to less than 10° C. (FIG. 7)): 10.7 °C
- core temperature (mice [1]; 80 ppm, cabinet 10° C., telemetry mouse, estimation from slope after electronics failed at 15.3° C.): approximately 12.5 °C
- core body temperature (mice [1]; 80 ppm, cabinet 10.5° C., approximately six hours): 10.5 °C
- decrease in cellular respiration (mice [1]; 80 ppm, core temperature 15° C.): 1-20 fold
- breathing (mice [1]; 80 ppm, core temperature dropped to 15° C.): 1-10 breaths per minute
- core temperature (mice [1]; 80 ppm, incubator 18° C., 90 min): 28.6 °C
- core temperature (mice [1]; 80 ppm, incubator 18° C., 3 hrs): 18.6 °C
- Consumption of oxygen (mice [1]; H2S (80 ppm) present): 1300 ppm
- production of carbon dioxide (mice [1]; H2S (80 ppm) present): 750 ppm
- RQ (mice [1]; mouse, in vivo): 0.58
- behavior of the animals (mice [1]; mouse, in vivo): no apparent change in the behavior
- behavior tests (SHIRPA protocol) (mice [1]; mouse, in vivo): no detectable behavioral differences
- lowest average core body temperature (mice [1]; seven mice, 80 ppm, 6 hrs, ambient temperature 13° C.): 15 °C
- Time in Hypoxia (mice [2]; ambient 20° C., 5 hrs in 80 ppm H2S prior, 4% oxygen, result life): 28 min
- Time in Hypoxia (mice [2]; ambient 20° C., 5 hrs in 80 ppm H2S prior, 5.00% oxygen, result life): 60 min
- Time in Hypoxia (mice [2]; ambient 20° C., 5 hrs in 80 ppm H2S prior, 5.20% oxygen, result life): 11 min
- Time in Hypoxia (mice [2]; ambient 20° C., 5.5 hrs in 80 ppm H2S prior, 5.00% oxygen, result life): 25 min
- Time in Hypoxia (mice [2]; ambient 24° C., 80 ppm H2S simultaneous with hypoxia, 5.10% oxygen, result dead): 10 min
- Time in Hypoxia (mice [2]; ambient 24° C., 8 minutes in 80 ppm H2S prior, 4.00% oxygen, result dead): 8 min
- Time in Hypoxia (mice [2]; ambient 24° C., 8 minutes in 80 ppm H2S prior, 4.50% oxygen, result dead): 23 min
- Time in Hypoxia (mice [2]; ambient 24° C., 8 minutes in 80 ppm H2S prior, 5% oxygen, result dead): 20 min
- Time in Hypoxia (mice [2]; ambient 24° C., 8 minutes in 80 ppm H2S prior, 5.00% oxygen, result life): 50 min
- Time in Hypoxia (mice [2]; ambient 24° C., 10 minutes in 90 ppm H2S prior, 5% oxygen, result dead): 56 min
- Time in Hypoxia (mice [2]; ambient 30° C., 8 minutes in 80 ppm H2S prior, 4.50% oxygen, result dead): 6 min
- time survived in hypoxia (mice [2]; pre-equilibrated to 80 ppm H2S for 3 hours, 5.2% oxygen, still doing well 3 weeks later): 11 min

— US8822535B2 (priority 2005, dated 2014)
